Measurements reported in ChEMBL document CHEMBL1201862, “PubChem BioAssay data set” (2004).
Active and inactive are the calls of the source.

Key:
[1] = NIH-3T3 fibroblast cytotoxicity, dose response, cytotoxicity control, cell-based, fluorescence, Alamar Blue, secondary assay (AID 2327); assay type: functional;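 note: NIH-3T3 mouse fibroblasts cultured with fluconazole at 8 µg/mL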
[2] = target: T1, Interleukin-8 (Homo sapiens, UniProt P10145); assay: Dose Response confirmation of uHTS small molecule hits for cystic fibrosis induced NFkb Inhibitors in a PAF-induced IL8 counterscreen.; assay type: functional; conditions: read-out: IC50_Mean
T1 sequence (P10145 whole entry): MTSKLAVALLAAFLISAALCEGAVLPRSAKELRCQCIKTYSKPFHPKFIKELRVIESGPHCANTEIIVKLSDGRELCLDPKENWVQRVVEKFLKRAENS

[3] = target: Kallikrein-7 (Homo sapiens, UniProt P49862); assay: Fluorescence Intensity-based biochemical primary high throughput dose response assay to identify activators of kallikrein-7 (K7) zymogen.
[4] = C. albicans growth with fluconazole, confirmation, fluorescence, retest (AID 2467); assay type: functional, cell-based
[5] = target: T2, Aminopeptidase N (Plasmodium falciparum FcB1/Columbia, UniProt O96935); assay: P. falciparum M1AAP inhibitors, biochemical, fluorogenic H-Leu-NHMec substrate, 1536-well (AID 1445); parameters: species or system Plasmodium falciparum 3D7, 3D7
T2 sequence (O96935 whole entry): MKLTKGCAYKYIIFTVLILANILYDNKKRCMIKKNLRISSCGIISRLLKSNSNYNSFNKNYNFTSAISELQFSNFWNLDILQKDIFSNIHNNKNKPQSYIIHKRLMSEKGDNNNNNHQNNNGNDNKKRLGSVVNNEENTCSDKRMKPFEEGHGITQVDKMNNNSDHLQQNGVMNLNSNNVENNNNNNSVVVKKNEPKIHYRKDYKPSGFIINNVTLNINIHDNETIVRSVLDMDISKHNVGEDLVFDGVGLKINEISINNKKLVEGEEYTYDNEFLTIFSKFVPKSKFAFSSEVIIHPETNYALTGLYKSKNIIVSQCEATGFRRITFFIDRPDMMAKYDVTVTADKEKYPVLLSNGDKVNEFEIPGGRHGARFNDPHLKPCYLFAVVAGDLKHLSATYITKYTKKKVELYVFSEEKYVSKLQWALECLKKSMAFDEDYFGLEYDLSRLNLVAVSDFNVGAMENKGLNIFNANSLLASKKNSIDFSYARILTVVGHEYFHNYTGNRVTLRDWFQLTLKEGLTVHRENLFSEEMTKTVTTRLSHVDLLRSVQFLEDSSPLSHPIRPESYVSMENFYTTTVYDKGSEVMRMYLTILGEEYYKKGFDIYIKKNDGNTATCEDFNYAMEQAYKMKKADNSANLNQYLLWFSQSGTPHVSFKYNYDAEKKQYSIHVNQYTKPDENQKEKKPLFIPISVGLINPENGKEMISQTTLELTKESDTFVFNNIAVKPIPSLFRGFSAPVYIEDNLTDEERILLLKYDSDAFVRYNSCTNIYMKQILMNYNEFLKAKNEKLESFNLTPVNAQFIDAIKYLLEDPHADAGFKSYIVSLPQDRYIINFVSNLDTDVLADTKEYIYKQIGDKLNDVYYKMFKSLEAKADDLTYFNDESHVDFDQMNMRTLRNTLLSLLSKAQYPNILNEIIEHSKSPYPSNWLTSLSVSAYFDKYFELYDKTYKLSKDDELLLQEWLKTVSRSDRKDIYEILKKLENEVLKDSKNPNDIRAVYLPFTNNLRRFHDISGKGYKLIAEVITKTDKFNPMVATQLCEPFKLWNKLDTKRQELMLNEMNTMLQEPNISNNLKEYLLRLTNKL

[6] = target: Serine/threonine-protein phosphatase PP1-alpha catalytic subunit (Homo sapiens, UniProt P62136); assay: PP1 phosphatase inhibitors, dose response, biochemical, fluorescence (AID 2403);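 note: phosphatase turnover of OMFP into fluorescent 3-O-methylfluorescein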
[7] = target: T3, Serine/threonine-protein phosphatase (Homo sapiens, UniProt Q9BPW0); assay: Counterscreen for inhibitors of PP1: fluorescence-based biochemical high throughput dose response assay to identify inhibitors of Protein Phosphatase 5 (PP5). [Related pubchem assays: 2034 (Summary (PP5 inhibitors)), 1987 (PP5 inhibitors in singlate), 2235 (PP1 inhibitors in singlate)]
T3 sequence (Q9BPW0 whole entry): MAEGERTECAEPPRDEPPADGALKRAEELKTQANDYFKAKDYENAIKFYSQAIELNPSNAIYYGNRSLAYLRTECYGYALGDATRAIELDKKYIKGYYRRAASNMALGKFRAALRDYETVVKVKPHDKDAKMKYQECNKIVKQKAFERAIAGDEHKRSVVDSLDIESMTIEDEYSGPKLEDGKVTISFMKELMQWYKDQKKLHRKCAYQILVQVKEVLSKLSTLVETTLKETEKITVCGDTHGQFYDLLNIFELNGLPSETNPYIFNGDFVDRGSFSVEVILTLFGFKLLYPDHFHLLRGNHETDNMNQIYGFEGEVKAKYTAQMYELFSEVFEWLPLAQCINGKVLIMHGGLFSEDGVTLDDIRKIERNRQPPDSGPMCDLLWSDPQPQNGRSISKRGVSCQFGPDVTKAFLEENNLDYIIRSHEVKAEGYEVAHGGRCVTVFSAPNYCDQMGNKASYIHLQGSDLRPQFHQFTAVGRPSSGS

[8] = target: Endoplasmic reticulum aminopeptidase 1 (Homo sapiens, UniProt Q9NZ08); assay: ERAP1 aminopeptidase inhibitors, dose response, biochemical, cherry-pick, set 2, plate reader (AID 743314)
[9] = target: C-C chemokine receptor type 6 (Homo sapiens, UniProt P51684); assay: SAR analysis of small molecule antagonists of the CXCR6 receptor using a CCR6 receptor luminescent beta-arrestin counterscreen.; assay type: functional
[10] = target: C-X-C chemokine receptor type 4 (Homo sapiens, UniProt P61073); assay: SAR analysis of small molecule antagonists of the CXCR6 receptor using a CXCR4 receptor luminescent beta-arrestin counterscreen.; assay type: functional
[11] = target: fMet-Leu-Phe receptor (Homo sapiens, UniProt P21462); assay: FPR ligands, dose response (AID 519); assay type: functional
[12] = target: Large T antigen (Simian virus 40, UniProt P03070); assay type: functional, Betapolyomavirus macacae;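 note: Confirmatory-stage PubChem screen for compounds that inhibit SV40 T antigen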
[13] = target: Caspase-6 (Homo sapiens, UniProt P55212); assay: human caspase-6 inhibitors, dose response, biochemical, VEID-R110 fluorescence, cherry-pick (AID 720632)
[14] = system: INS1; assay: beta cell apoptosis inhibitors, cytokine rescue, dose response, luminescence, retest (AID 449756); assay type: functional, cell-based; conditions: Rattus norvegicus;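 note: cell death triggered by IL-1 beta plus TNF-alpha plus IFN-gamma mixture; protective hits raise ATP signal compared with cytokine alone wells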
[15] = Artemis endonuclease inhibitor potency, dose response, biochemical, fluorescence intensity (AID 720701); assay type: functional;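 note: Artemis endonuclease enzyme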

Chain of Kallikrein-7 (P49862 whole entry): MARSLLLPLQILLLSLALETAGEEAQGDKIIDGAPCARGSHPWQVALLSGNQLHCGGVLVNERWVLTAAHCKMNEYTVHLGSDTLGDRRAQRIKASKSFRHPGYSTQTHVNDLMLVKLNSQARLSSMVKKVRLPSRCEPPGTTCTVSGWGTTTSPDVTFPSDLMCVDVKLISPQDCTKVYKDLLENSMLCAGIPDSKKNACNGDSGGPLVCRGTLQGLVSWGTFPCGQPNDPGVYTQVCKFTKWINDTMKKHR
Chain of C-C chemokine receptor type 6 (P51684 whole entry): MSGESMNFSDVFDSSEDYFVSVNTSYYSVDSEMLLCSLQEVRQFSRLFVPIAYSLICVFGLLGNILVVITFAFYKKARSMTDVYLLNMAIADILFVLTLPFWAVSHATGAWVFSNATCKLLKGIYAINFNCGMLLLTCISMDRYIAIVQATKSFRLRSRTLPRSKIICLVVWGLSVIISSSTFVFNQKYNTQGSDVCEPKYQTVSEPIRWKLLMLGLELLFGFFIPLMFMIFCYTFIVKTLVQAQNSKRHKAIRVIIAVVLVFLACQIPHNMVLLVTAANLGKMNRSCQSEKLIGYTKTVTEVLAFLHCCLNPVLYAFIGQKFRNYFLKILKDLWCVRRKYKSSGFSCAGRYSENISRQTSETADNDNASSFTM
Chain of Endoplasmic reticulum aminopeptidase 1 (Q9NZ08 whole entry): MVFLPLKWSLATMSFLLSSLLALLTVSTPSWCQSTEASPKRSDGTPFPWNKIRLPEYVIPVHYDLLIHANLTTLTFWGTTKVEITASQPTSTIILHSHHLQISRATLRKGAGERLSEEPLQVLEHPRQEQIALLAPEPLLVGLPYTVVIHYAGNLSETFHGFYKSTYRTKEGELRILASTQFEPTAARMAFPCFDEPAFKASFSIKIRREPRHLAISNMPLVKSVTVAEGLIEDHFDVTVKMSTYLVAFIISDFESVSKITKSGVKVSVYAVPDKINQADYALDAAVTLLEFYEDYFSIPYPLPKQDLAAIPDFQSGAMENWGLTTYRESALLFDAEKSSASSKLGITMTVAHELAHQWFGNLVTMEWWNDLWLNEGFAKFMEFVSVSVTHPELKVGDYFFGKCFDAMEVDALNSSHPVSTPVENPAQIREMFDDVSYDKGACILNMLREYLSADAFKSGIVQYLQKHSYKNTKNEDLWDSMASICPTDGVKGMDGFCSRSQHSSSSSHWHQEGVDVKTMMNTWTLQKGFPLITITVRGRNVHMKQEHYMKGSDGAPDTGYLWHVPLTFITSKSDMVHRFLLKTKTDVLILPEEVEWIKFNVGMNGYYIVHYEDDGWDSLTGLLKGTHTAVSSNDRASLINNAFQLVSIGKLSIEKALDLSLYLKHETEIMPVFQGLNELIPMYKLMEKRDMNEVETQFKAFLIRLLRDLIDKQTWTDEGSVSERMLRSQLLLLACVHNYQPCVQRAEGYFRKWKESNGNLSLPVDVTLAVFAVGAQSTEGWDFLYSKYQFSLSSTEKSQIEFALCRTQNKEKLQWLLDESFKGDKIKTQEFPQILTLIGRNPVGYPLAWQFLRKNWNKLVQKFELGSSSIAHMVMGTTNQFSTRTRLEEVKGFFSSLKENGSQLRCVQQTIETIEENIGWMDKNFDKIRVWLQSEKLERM
Chain of C-X-C chemokine receptor type 4 (P61073 whole entry): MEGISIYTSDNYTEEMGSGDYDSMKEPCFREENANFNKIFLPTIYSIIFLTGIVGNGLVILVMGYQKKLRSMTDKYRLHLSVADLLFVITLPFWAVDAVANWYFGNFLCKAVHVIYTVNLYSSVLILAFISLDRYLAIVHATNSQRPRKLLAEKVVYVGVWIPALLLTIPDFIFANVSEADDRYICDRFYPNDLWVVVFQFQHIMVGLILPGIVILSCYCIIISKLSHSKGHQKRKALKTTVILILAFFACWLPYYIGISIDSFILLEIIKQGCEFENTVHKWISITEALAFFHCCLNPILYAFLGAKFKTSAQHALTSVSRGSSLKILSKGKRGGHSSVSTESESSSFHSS
Chain of Serine/threonine-protein phosphatase PP1-alpha catalytic subunit (P62136 whole entry): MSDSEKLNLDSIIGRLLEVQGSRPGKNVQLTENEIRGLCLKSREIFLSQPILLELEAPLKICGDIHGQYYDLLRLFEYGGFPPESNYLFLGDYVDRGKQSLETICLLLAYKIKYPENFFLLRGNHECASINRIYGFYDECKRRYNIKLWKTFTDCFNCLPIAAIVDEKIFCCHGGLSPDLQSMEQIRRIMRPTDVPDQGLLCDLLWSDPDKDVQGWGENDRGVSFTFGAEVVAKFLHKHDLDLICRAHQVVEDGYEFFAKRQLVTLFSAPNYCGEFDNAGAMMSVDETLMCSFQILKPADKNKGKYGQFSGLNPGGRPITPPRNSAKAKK
Chain of Caspase-6 (P55212 24-179 limits assumed): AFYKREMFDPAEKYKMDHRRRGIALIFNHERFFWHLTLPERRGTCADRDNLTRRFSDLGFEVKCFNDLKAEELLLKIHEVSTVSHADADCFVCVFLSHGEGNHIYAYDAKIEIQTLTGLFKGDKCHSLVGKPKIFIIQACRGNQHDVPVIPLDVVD
Chain of Caspase-6 (P55212 194-293 limits assumed): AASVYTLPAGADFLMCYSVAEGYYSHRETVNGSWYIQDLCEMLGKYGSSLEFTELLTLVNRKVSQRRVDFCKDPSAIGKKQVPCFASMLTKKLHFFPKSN
Chain of fMet-Leu-Phe receptor (P21462 whole entry): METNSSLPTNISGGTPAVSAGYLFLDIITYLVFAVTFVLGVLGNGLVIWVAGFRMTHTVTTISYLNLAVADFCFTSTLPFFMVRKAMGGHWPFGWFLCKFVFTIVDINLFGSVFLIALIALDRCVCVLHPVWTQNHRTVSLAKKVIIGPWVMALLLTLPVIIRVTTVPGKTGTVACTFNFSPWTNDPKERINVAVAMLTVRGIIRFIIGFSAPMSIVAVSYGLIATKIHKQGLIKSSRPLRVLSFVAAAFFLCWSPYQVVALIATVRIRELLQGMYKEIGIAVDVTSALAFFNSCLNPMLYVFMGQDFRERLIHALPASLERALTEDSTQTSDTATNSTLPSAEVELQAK
Chain of Large T antigen (P03070 whole entry): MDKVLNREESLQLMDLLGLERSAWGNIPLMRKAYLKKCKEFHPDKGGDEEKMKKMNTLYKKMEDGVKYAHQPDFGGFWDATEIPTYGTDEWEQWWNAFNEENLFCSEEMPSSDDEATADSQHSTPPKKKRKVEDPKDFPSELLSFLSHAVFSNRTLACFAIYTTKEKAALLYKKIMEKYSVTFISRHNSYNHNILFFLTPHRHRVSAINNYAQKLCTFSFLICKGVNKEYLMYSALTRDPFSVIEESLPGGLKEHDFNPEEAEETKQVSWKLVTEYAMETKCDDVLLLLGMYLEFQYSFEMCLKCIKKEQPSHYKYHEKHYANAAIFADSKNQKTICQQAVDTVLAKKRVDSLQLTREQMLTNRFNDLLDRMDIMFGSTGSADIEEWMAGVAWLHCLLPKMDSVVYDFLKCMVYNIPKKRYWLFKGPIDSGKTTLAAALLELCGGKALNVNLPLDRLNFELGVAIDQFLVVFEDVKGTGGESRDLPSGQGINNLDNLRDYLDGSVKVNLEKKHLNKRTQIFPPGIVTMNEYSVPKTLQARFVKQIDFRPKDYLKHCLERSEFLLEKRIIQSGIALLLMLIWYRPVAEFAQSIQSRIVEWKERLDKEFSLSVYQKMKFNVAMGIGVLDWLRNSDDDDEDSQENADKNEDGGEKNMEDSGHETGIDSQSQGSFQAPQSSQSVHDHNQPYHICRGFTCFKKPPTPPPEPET

In the case of COc1ccc(-c2cc(=O)oc3cc(OC(=O)C4CCCCC4)c(Cl)cc23)cc1, the EC50 [1] is reported as 34.6 µM (active), the IC50 [2] is reported as 4.55 µM (active) and the EC50 [3] is reported as > 69.5 µM (inactive). For the same compound, the EC50 [4] was 1.9 µM (active).
With CCCCCCC[C@H](N)[C@H](O)C(=O)N(C)[C@@H](CC[S+](C)[O-])C(=O)N[C@@H](Cc1ccc(O)cc1)C(=O)N[C@@H](Cc1ccc(O)cc1)C(=O)O (stereo not given in full) the IC50 [5] was 16.8 µM (active), the IC50 [6] was 0.227 µM (active) and the IC50 [7] was 0.578 µM (active). For the same compound, the AC50 [8] was 8.53 µM (active).
With COc1cc(C(=O)NC2CC3CCCC(C2)N3CC(=O)Nc2ccccc2)cc(OC)c1OC (stereo not given) the IC50 [9] was > 79 µM (inactive) and the IC50 [10] was > 79 µM (inactive).
With Cc1cc(SCC(N)=O)nc(SCC(=O)c2ccccc2)n1 the Ki [11] was > 66.7 µM (inactive).
In the case of COc1ccc(Br)cc1C1CC(=O)N2CN(C)CSC2=C1C#N (stereo not given), the IC50 [12] is reported as 76.9 µM (active) and the AC50 [13] is reported as 39.2 µM (active).
With c1ccc(-c2nnc3sc(-c4csc5c4CCCC5)nn23)cc1 the AC50 [14] was 64.1 µM (active) and the IC50 [15] was > 20 µM (inactive).
